Target: T1, GPCR GPR40 (Homo sapiens, UniProt O14842)
T1 construct: expressed in transfected cells; host or cells: HEK293
Test: In-vitro FLIPR assay with recombinant cells which express the GPCR GPR40
Type: cell-based
Conditions: agonist-induced intracellular Ca2+ change in recombinant HEK293 cells expressing GPR40; relative to 10 μM linoleic acid = 100%
Method: In-vitro FLIPR Assay with Recombinant Cells which Express the GPCR GPR40
Function-testing assays were carried out by means of the FLIPR technique (“fluorescence imaging plate reader”, Molecular Devices Corp.). For this purpose, agonist-induced alterations in the intracellular concentration of Ca^2+ in recombinant HEK293 cells which express the GPCR GPR40 were determined.
For the investigations, cells were seeded in 96-well microtiter plates (60 000 cells/well) and left to grow overnight. The medium was removed and the cells were incubated in buffer which contained the fluorescent dye Fluo-4. After this loading with dye, the cells were washed, test substance was added and alterations in the intracellular Ca^2+ concentration were measured in the FLIPR instrument. Results have been depicted as percentage alteration relative to the control (0%: no test substance added; 100%: 10 μM reference agonist linoleic acid added) used to calculate dose/activity plots and EC50 values were determined.

T1 sequence (O14842 whole entry): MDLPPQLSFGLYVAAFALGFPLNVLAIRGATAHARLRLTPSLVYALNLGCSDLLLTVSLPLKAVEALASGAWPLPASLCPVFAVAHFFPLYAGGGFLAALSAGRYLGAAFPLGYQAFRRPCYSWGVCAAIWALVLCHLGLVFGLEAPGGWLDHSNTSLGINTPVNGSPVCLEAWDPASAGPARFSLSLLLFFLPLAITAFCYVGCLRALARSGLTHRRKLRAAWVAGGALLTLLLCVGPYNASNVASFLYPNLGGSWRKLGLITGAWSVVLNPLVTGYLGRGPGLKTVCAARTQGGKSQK

O=C(Nc1ccc(C2CC2C(=O)O)cc1)C(=O)Nc1ccc(Cl)cc1C(F)(F)F (centres unmarked) [Example 2]
EC50: 0.7 µM

O=C(Nc1ccc(C2CC2C(=O)O)cc1)C(=O)Nc1cccc(Cl)c1Cl (centres unmarked) [Example 3]
EC50: 0.8 µM

From patent US8148375B2, “(Cyclopropylphenyl)phenyloxamides, method for the production thereof, and use of same as a medicament” (Sanofi-Aventis, priority 2007, dated 2012)
